Tested on: relapsed or refractory, rituximab-naive or -sensitive follicular B-cell NHL
Experiment: Time to next anti-lymphoma therapy, Vc-R vs rituximab study, by biomarker
Format: in vivo, human
Set-up: Median, Time to Next Anti-Lymphoma Therapy / Time to Next Anti-Lymphoma Therapy, Median: unit not given here
From the text: Non-Hodgkin lymphoma (NHL) encompasses several unique malignant lymphoid disease entities that vary in clinical behavior, morphologic appearance, immunologic, and molecular phenotype. […] A randomized, open-label, active-controlled, multicenter, multinational, prospective study to compare the efficacy and safety of the combination of bortezomib and rituximab (Vc-R) to single-agent rituximab in subjects who have relapsed or refractory, rituximab-naive or -sensitive follicular B-cell NHL was performed.
Subjects were centrally randomized to Treatment Groups A (Vc-R) or B (rituximab) in a 1:1 ratio taking into account the following stratification factors: • Follicular Lymphoma International Prognostic Index (FLIPI) score (low [0 or 1 factor], intermediate [2 factors], high [≧3 factors]); • Prior rituximab therapy (yes, no); • Time since last dose of anti-lymphoma therapy (≦1 year, >1 year); • Region (United States/Canada, European Union, Rest of World).
The following clinical endpoints were included in the analysis within each treatment group and an overall comparison was made with the biomarker-related endpoints: Progression-free survival, defined as the interval between the date of randomization and the date of progressive disease (PD) or death, whichever is first reported in the ITT population; overall survival; overall response rate (complete response [CR]+CR unconfirmed [CRu]+partial response [PR]); overall CR rate (CR+CRu); duration of response; time to next anti-lymphoma therapy; and treatment free interval.

[1] = 20S % NUCLEAR STAINING: 0-20, Female, IRC Review
[2] = 20S % NUCLEAR STAINING: 60-70, Male, IRC Review
[3] = 20S % NUCLEAR STAINING: 60-70, Prior Rituximab Therapy, IRC Review
[4] = 20S INTENSITY CYTOPLASMIC SIGNAL: ≧3+, European Union, IRC Review
[5] = 20S INTENSITY CYTOPLASMIC SIGNAL: ≧3+, Male, IRC Review
[6] = BCL2/A43G: MND, subgroup White, IRC review
[7] = BCL2/C.-11C > T: MND, subgroup White, IRC review
[8] = BCL2/E29K: MND, subgroup White, IRC review
[9] = BCL2/P46L: MND, subgroup White, IRC review
[10] = BCL2/P46S: MND, subgroup White, IRC review
[11] = BCL2/P59L: MND, subgroup White, IRC review
[12] = BCL2/P59S: MND, subgroup White, IRC review
[13] = BCL2/Q52P: MND, subgroup White, IRC review
[14] = BCL2/R106H: MND, subgroup White, IRC review
[15] = CD68 OVERALL POSITIVE: 0-25, 2 Prior Lines of Therapy, IRC Review
[16] = CD68 OVERALL POSITIVE: 0-25, >1 year since last anti-lymphoma treatment, IRC Review
[17] = CD68 OVERALL POSITIVE: 0-25, Ann Arbor Stage III, IRC Review
[18] = CD68 OVERALL POSITIVE: 0-25, Ann Arbor Stage IV, IRC Review
[19] = CD68 OVERALL POSITIVE: 0-25, European Union, IRC Review
[20] = CD68 OVERALL POSITIVE: 0-25, Female, IRC Review
[21] = CD68 OVERALL POSITIVE: 0-25, Intermediate FLIPI Score, IRC Review
[22] = CD68 OVERALL POSITIVE: 0-25, Low FLIPI Score, IRC Review
[23] = CD68 OVERALL POSITIVE: 0-25, Male, IRC Review
[24] = CD68 OVERALL POSITIVE: 0-25, No High Tumor Burden, IRC Review
[25] = CD68 OVERALL POSITIVE: 0-25, No Prior Rituximab Therapy, IRC Review
[26] = CD68 OVERALL POSITIVE: 0-25, No Subgroup, IRC Review
[27] = CD68 OVERALL POSITIVE: 0-25, Prior Rituximab Therapy, IRC Review
[28] = CD68 OVERALL POSITIVE: 0-25, White, IRC Review
[29] = CD68 OVERALL POSITIVE: 0-25, ≦65 years old, IRC Review
[30] = CD68 OVERALL POSITIVE: >75, Male, IRC Review
[31] = CD68 POSITIVE FOLLICULAR: 0-25, >1 year since last anti-lymphoma treatment, IRC Review
[32] = CD68 POSITIVE FOLLICULAR: 0-25, Ann Arbor Stage III, IRC Review
[33] = CD68 POSITIVE FOLLICULAR: 0-25, Asian, IRC Review
[34] = CD68 POSITIVE FOLLICULAR: 0-25, Female, IRC Review
[35] = CD68 POSITIVE FOLLICULAR: 0-25, Intermediate FLIPI Score, IRC Review
[36] = CD68 POSITIVE FOLLICULAR: 0-25, No High Tumor Burden, IRC Review
[37] = CD68 POSITIVE FOLLICULAR: 0-25, No Prior Rituximab Therapy, IRC Review
[38] = CD68 POSITIVE FOLLICULAR: 0-25, No Subgroup, IRC Review
[39] = CD68 POSITIVE FOLLICULAR: 0-25, White, IRC Review
[40] = CD68 POSITIVE FOLLICULAR: 0-25, ≦65 years old, IRC Review
[41] = CD68 POSITIVE PERIFOLLICULAR: 0-25, 2 Prior Lines of Therapy, IRC Review
[42] = CD68 POSITIVE PERIFOLLICULAR: 0-25, >1 year since last anti-lymphoma treatment, IRC Review
[43] = CD68 POSITIVE PERIFOLLICULAR: 0-25, Ann Arbor Stage IV, IRC Review
[44] = CD68 POSITIVE PERIFOLLICULAR: 0-25, Female, IRC Review
[45] = CD68 POSITIVE PERIFOLLICULAR: 0-25, Intermediate FLIPI Score, IRC Review
[46] = CD68 POSITIVE PERIFOLLICULAR: 0-25, No High Tumor Burden, IRC Review
[47] = CD68 POSITIVE PERIFOLLICULAR: 0-25, No Prior Rituximab Therapy, IRC Review
[48] = CD68 POSITIVE PERIFOLLICULAR: 0-25, No Subgroup, IRC Review

rituximab
Evt/N, Time to Next Anti-Lymphoma Therapy [1]: 35/61 | Median, Time to Next Anti-Lymphoma Therapy [1]: 568 | Evt/N, Time to Next Anti-Lymphoma Therapy [2]: 14/16 | Median, Time to Next Anti-Lymphoma Therapy [2]: 247 | Evt/N, Time to Next Anti-Lymphoma Therapy [3]: 17/21 | Median, Time to Next Anti-Lymphoma Therapy [3]: 343 | Evt/N, Time to Next Anti-Lymphoma Therapy [4]: 34/52 | Median, Time to Next Anti-Lymphoma Therapy [4]: 533 | Evt/N, Time to Next Anti-Lymphoma Therapy [5]: 20/27 | Median, Time to Next Anti-Lymphoma Therapy [5]: 421 | Median, Time to Next Anti-Lymphoma Therapy (BCL2/A43G: MND, subgroup Ann Arbor Stage IV, IRC review): 450 | Evt/N, Time to Next Anti-Lymphoma Therapy [6]: 89/140 | Median, Time to Next Anti-Lymphoma Therapy [6]: 504 | Median, Time to Next Anti-Lymphoma Therapy (BCL2/C.-11C > T: MND, subgroup Ann Arbor Stage IV, IRC review): 450 | Evt/N, Time to Next Anti-Lymphoma Therapy [7]: 110/168 | Median, Time to Next Anti-Lymphoma Therapy [7]: 504 | Evt/N, Time to Next Anti-Lymphoma Therapy [8]: 83/129 | Median, Time to Next Anti-Lymphoma Therapy [8]: 485 | Evt/N, Time to Next Anti-Lymphoma Therapy [9]: 74/117 | Median, Time to Next Anti-Lymphoma Therapy [9]: 505 | Evt/N, Time to Next Anti-Lymphoma Therapy [10]: 81/130 | Median, Time to Next Anti-Lymphoma Therapy [10]: 505 | Evt/N, Time to Next Anti-Lymphoma Therapy [11]: 80/129 | Median, Time to Next Anti-Lymphoma Therapy [11]: 533 | Evt/N, Time to Next Anti-Lymphoma Therapy [12]: 81/128 | Median, Time to Next Anti-Lymphoma Therapy [12]: 505 | Evt/N, Time to Next Anti-Lymphoma Therapy [13]: 85/135 | Median, Time to Next Anti-Lymphoma Therapy [13]: 504 | Evt/N, Time to Next Anti-Lymphoma Therapy [14]: 93/140 | Median, Time to Next Anti-Lymphoma Therapy [14]: 501 | time to next treatment interval (Biomarker positive (PSMB1 P11A heterozygote and CD68 Low)): 14.8 mo | Evt/N, Time to Next Anti-Lymphoma Therapy [15]: 6/8 | Median, Time to Next Anti-Lymphoma Therapy [15]: 204 | Evt/N, Time to Next Anti-Lymphoma Therapy [16]: 17/26 | Median, Time to Next Anti-Lymphoma Therapy [16]: 409 | Evt/N, Time to Next Anti-Lymphoma Therapy [17]: 12/16 | Median, Time to Next Anti-Lymphoma Therapy [17]: 276 | Evt/N, Time to Next Anti-Lymphoma Therapy [18]: 15/22 | Median, Time to Next Anti-Lymphoma Therapy [18]: 434 | Evt/N, Time to Next Anti-Lymphoma Therapy [19]: 14/22 | Median, Time to Next Anti-Lymphoma Therapy [19]: 374 | Evt/N, Time to Next Anti-Lymphoma Therapy [20]: 16/26 | Median, Time to Next Anti-Lymphoma Therapy [20]: 434 | Evt/N, Time to Next Anti-Lymphoma Therapy [21]: 7/11 | Median, Time to Next Anti-Lymphoma Therapy [21]: 485 | Evt/N, Time to Next Anti-Lymphoma Therapy [22]: 8/10 | Median, Time to Next Anti-Lymphoma Therapy [22]: 422 | Evt/N, Time to Next Anti-Lymphoma Therapy [23]: 14/18 | Median, Time to Next Anti-Lymphoma Therapy [23]: 251 | Evt/N, Time to Next Anti-Lymphoma Therapy [24]: 8/14 | Median, Time to Next Anti-Lymphoma Therapy [24]: 552 | Evt/N, Time to Next Anti-Lymphoma Therapy [25]: 12/19 | Median, Time to Next Anti-Lymphoma Therapy [25]: 533 | Evt/N, Time to Next Anti-Lymphoma Therapy [26]: 30/44 | Median, Time to Next Anti-Lymphoma Therapy [26]: 409 | Evt/N, Time to Next Anti-Lymphoma Therapy [27]: 18/25 | Median, Time to Next Anti-Lymphoma Therapy [27]: 235 | Evt/N, Time to Next Anti-Lymphoma Therapy [28]: 24/35 | Median, Time to Next Anti-Lymphoma Therapy [28]: 409 | Evt/N, Time to Next Anti-Lymphoma Therapy [29]: 24/34 | Median, Time to Next Anti-Lymphoma Therapy [29]: 374 | Evt/N, Time to Next Anti-Lymphoma Therapy (CD68 OVERALL POSITIVE: 51-75, No High Tumor Burden, IRC Review): 10/25 | Evt/N, Time to Next Anti-Lymphoma Therapy [30]: 8/9 | Median, Time to Next Anti-Lymphoma Therapy [30]: 427 | Evt/N, Time to Next Anti-Lymphoma Therapy [31]: 22/34 | Median, Time to Next Anti-Lymphoma Therapy [31]: 550 | Evt/N, Time to Next Anti-Lymphoma Therapy [32]: 19/24 | Median, Time to Next Anti-Lymphoma Therapy [32]: 332 | Evt/N, Time to Next Anti-Lymphoma Therapy [33]: 5/6 | Median, Time to Next Anti-Lymphoma Therapy [33]: 220 | Evt/N, Time to Next Anti-Lymphoma Therapy [34]: 23/37 | Median, Time to Next Anti-Lymphoma Therapy [34]: 462 | Evt/N, Time to Next Anti-Lymphoma Therapy [35]: 14/20 | Median, Time to Next Anti-Lymphoma Therapy [35]: 421 | Evt/N, Time to Next Anti-Lymphoma Therapy [36]: 14/22 | Median, Time to Next Anti-Lymphoma Therapy [36]: 573 | Evt/N, Time to Next Anti-Lymphoma Therapy [37]: 23/36 | Median, Time to Next Anti-Lymphoma Therapy [37]: 485 | Evt/N, Time to Next Anti-Lymphoma Therapy [38]: 40/60 | Median, Time to Next Anti-Lymphoma Therapy [38]: 462 | Evt/N, Time to Next Anti-Lymphoma Therapy [39]: 32/48 | Median, Time to Next Anti-Lymphoma Therapy [39]: 462 | Evt/N, Time to Next Anti-Lymphoma Therapy [40]: 33/46 | Median, Time to Next Anti-Lymphoma Therapy [40]: 332 | Evt/N, Time to Next Anti-Lymphoma Therapy [41]: 6/8 | Median, Time to Next Anti-Lymphoma Therapy [41]: 171 | Evt/N, Time to Next Anti-Lymphoma Therapy [42]: 15/24 | Median, Time to Next Anti-Lymphoma Therapy [42]: 533 | Evt/N, Time to Next Anti-Lymphoma Therapy [43]: 11/15 | Median, Time to Next Anti-Lymphoma Therapy [43]: 374 | Evt/N, Time to Next Anti-Lymphoma Therapy [44]: 19/28 | Median, Time to Next Anti-Lymphoma Therapy [44]: 374 | Evt/N, Time to Next Anti-Lymphoma Therapy [45]: 7/13 | Median, Time to Next Anti-Lymphoma Therapy [45]: 501 | Evt/N, Time to Next Anti-Lymphoma Therapy [46]: 8/13 | Median, Time to Next Anti-Lymphoma Therapy [46]: 501 | Evt/N, Time to Next Anti-Lymphoma Therapy [47]: 12/18 | Median, Time to Next Anti-Lymphoma Therapy [47]: 533 | Evt/N, Time to Next Anti-Lymphoma Therapy [48]: 26/39 | Median, Time to Next Anti-Lymphoma Therapy [48]: 374

— patent US9322066B2, “Predictors for cancer treatment” (priority 2011, dated 2016)
